One data set concerns the target Human plasma kallikrein (Homo sapiens (Human), UniProt P03952). In words: Determination of the IC50 for plasma kallikrein. It counts as biochemical. The settings on record: 37° C., substrate H-DPro-Phe-Arg-AFC, read-out: IC50 (human PKal). The essentials: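 Residual activity (initial rate, absorbance at 410 nm) gave the IC50. Reactions at 37° C combined human plasma kallikrein, substrate H-DPro-Phe-Arg-AFC and a range of inhibitor concentrations.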

In the next data set the target is Human KLK1 (Homo sapiens (Human), UniProt P06870). Kind of data set: Determination of the IC50 for KLK1. It counts as biochemical. The settings on record: Human KLK1, 37° C., substrate H-DVal-Leu-Arg-AFC; Table 13. The essentials: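 Human KLK1 incubated at 37 °C with fluorogenic substrate H-DVal-Leu-Arg-AFC and a range of test compound concentrations. Residual activity was taken as initial reaction rate from absorbance change at 410 nm, and the IC50 derived from it.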
Chain of Human KLK1 (P06870 25-262): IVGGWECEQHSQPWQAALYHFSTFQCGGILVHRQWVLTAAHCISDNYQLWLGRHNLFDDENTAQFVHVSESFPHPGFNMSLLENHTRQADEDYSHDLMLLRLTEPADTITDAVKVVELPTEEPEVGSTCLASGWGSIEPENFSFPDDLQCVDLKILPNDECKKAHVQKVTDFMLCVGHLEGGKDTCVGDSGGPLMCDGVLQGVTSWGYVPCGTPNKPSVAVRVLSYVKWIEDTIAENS

For the next data set, the target named is Factor XIIa (Homo sapiens (Human), UniProt P00748). In words: Determination of enzyme selectivity: Factor XIIa. It counts as biochemical. The settings on record: fluorogenic substrate at Km concentration. As for the experimental part: Determination of Enzyme Selectivity
Chain of Factor XIIa (P00748 373-615): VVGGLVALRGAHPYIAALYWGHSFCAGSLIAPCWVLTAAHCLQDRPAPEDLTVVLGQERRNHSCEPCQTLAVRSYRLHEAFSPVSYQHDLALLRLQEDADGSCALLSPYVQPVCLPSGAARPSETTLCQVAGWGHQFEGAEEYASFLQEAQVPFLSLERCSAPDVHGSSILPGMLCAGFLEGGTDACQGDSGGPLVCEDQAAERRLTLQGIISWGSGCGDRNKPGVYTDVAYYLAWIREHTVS
Human serine protease enzymes plasmin, thrombin, trypsin, Factor Xa and Factor XIIa were assayed for enzymatic activity using an appropriate fluorogenic substrate. Protease activity was measured by monitoring the accumulation of liberated fluorescence from the substrate over 5 minutes. The linear rate of fluorescence increase per minute was expressed as percentage (%) activity. The Km for the cleavage of each substrate was determined by standard transformation of the Michaelis-Menten equation.

Data set [1] can be described thus: Determination of thermodynamic solubility in phosphate buffer. It counts as physicochemical. As to conditions: pH 7.4, aqueous buffer, thermodynamic from solid, ammonium phosphate buffer pH7.4, 290 mOsm, 37° C., nominal 1 mg/mL, read-out: Solubility in PO4 buffer. The essentials:
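Compound at nominal 1 mg/mL in ammonium phosphate buffer (pH7.4, 290 mOsm), shaken 1 h at 37° C., then centrifuged 15,000 g for 10 minutes at 37° C. Supernatant concentration measured by LC-MS/MS against a calibration line from a DMSO stock.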

SMILES strings stand for the structures. Converted amounts (≈) assume the structure as drawn.

Chain of Human plasma kallikrein (P03952 391-638): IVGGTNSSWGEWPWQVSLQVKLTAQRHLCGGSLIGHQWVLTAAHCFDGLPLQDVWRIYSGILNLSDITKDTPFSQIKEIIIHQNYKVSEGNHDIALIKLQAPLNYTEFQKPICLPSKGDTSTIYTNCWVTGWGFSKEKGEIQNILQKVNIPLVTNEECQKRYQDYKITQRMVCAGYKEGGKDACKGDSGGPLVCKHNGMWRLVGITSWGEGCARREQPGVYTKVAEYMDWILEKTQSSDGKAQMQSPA
Chain of Human plasma kallikrein (P03952 20-390 partner): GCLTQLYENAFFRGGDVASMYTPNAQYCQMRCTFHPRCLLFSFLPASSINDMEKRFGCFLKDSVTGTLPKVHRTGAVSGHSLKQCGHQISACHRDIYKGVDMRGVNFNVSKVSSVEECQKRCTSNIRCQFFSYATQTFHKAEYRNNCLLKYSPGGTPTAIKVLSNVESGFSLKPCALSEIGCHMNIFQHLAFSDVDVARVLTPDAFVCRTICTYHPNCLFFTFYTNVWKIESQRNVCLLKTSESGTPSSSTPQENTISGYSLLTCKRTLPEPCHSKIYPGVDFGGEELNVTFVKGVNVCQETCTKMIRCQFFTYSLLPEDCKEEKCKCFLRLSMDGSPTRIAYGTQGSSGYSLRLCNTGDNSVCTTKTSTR

In general, IC50 refers to the midpoint of a concentration-inhibition curve. On to `CCOc1ccc(C[C@@H](NC(=O)c2sccc2NC(C)=O)C(=O)N[C@@H](Cc2csc3ccccc23)C(=O)NCc2ccc(CN)cc2)cc1` [Example 188, 3-Acetylamino-thiophene-2-carboxylic acid [(R)-1-[(S)-1-(4-aminomethyl-benzylcarbamoyl)-2-benzo[b]thiophen-3-yl-ethylcarbamoyl]-2-(4-ethoxy-phenyl)-ethyl]-amide], for which the IC50 on Human plasma kallikrein is 36 nM; against Human KLK1, more than 10000 nM; at Factor XIIa it was more than 10000 nM.
In the case of `NCc1ccc(CNC(=O)[C@H](Cc2ccccc2)NC(=O)C(Cc2ccc(OCC(F)(F)F)cc2)NC(=O)c2ccccc2)cc1` (stereo partly drawn) [Example 201, N-{(R,S)-1-[(S)-1-(4-Aminomethyl-benzylcarbamoyl)-2-phenyl-ethylcarbamoyl]-2-[4-(2,2,2-trifluoro-ethoxy)-phenyl]-ethyl}-benzamide], the values for the IC50 at Human plasma kallikrein, at Human KLK1 and against Factor XIIa were 12 nM, more than 10000 nM and more than 10000 nM, respectively.
Take `CCOc1ccc(C[C@@H](NC(=O)c2cc(Cl)cc(Cl)c2)C(=O)N[C@@H](Cc2ccccc2)C(=O)NCc2ccc(CN)cc2)cc1` [Example 94, N-[(R)-1-[(S)-1-(4-Aminomethyl-benzylcarbamoyl)-2-phenyl-ethylcarbamoy]-2-(4-ethoxy-phenyl)-ethyl]-3,5-dichloro-benzamide]: the IC50 was 1080 nM at Human plasma kallikrein, more than 10000 nM on Human KLK1 and more than 10000 nM on Factor XIIa.
Consider `CCOc1ccc(C[C@@H](NC(=O)c2[nH]c(C)cc2C)C(=O)N[C@@H](Cc2ccccc2)C(=O)NCc2ccc(CN)cc2)cc1` [Example 191, 3,5-Dimethyl-1H-pyrrole-2-carboxylic acid [(R)-1-[(S)-1-(4-aminomethyl-benzylcarbamoyl)-2-phenyl-ethylcarbamoyl]-2-(4-ethoxy-phenyl)-ethyl]-amide], for which the IC50 was 20 nM at Human plasma kallikrein, more than 10000 nM at Human KLK1 and more than 10000 nM on Factor XIIa.
As to `CCOc1ccc(C[C@@H](NC(=O)c2ccc(C)cc2)C(=O)N[C@@H](Cc2cscn2)C(=O)NCc2ccc(CN)cc2)cc1` [Example 185, N-[(R)-1-[(S)-1-(4-Aminomethyl-benzylcarbamoyl)-2-thiazol-4-yl-ethylcarbamoyl]-2-(4-ethoxy-phenyl)-ethyl]-4-methyl-benzamide], the values for the IC50 at Human plasma kallikrein, on Human KLK1 and against Factor XIIa were 49 nM, more than 10000 nM and more than 10000 nM, respectively.
In the case of `CCOc1ccc(C[C@@H](NC(=O)c2ccccc2)C(=O)N[C@H](C(=O)NCc2ccc(CN)cc2)[C@H](O)c2ccccc2)cc1` [Example 197, N-[(R)-1-[(1S,2R)-1-(4-Aminomethyl-benzylcarbamoyl)-2-hydroxy-2-phenyl-ethylcarbamoyl]-2-(4-ethoxy-phenyl)-ethyl]-benzamide], the figures for the IC50 on Human plasma kallikrein, against Human KLK1 and on Factor XIIa were 12 nM, more than 10000 nM and more than 10000 nM, respectively.
With `CCOc1ccc(C[C@@H](NC(=O)c2sccc2Cl)C(=O)N[C@@H](Cc2cscn2)C(=O)NCc2ccc(CN)cc2)cc1` [Example 184, 3-Chloro-thiophene-2-carboxylic acid [(R)-1-[(S)-1-(4-aminomethyl-benzylcarbamoyl)-2-thiazol-4-yl-ethylcarbamoyl]-2-(4-ethoxy-phenyl)-ethyl]-amide], the IC50 was 10 nM at Human plasma kallikrein, more than 10000 nM against Human KLK1 and more than 10000 nM at Factor XIIa.
Regarding `CCOc1ccc(C[C@@H](NC(=O)c2ccccc2)C(=O)N[C@@H](Cc2ccccc2)C(=O)NCc2ccc(CN)c(C)c2)cc1` [Example 182, N-[(R)-1-[(S)-1-(4-Aminomethyl-3-methyl-benzylcarbamoyl)-2-phenyl-ethylcarbamoyl]-2-(4-ethoxy-phenyl)-ethyl]-benzamide], the IC50 is 15 nM on Human plasma kallikrein, more than 10000 nM against Human KLK1 and more than 10000 nM at Factor XIIa.
The solubility is the concentration that dissolves in the medium under given conditions. Regarding `CCOc1ccc(C[C@@H](NC(=O)c2ccc(C)cc2)C(=O)N[C@@H](Cc2cccnc2)C(=O)NCc2ccc(CN)cc2)cc1` [Example 199, N—[(R)-1-[(S)-1-(4-Aminomethyl-benzylcarbamoyl)-2-pyridin-3-yl-ethylcarbamoyl]-2-(4-ethoxy-phenyl)-ethyl]-4-methyl-benzamide], the solubility at 1 h in data set [1] stood at 15.9 µg/mL (≈ 26.7 µM). The IC50 was 10 nM on Human plasma kallikrein, more than 10000 nM against Human KLK1 and more than 10000 nM against Factor XIIa.
As for `CCOc1ccc(C[C@@H](NC(=O)c2sccc2N)C(=O)N[C@@H](Cc2cscn2)C(=O)NCc2ccc(CN)cc2)cc1` [Example 183, 3-Amino-thiophene-2-carboxylic acid [(R)-1-[(S)-1-(4-aminomethyl-benzylcarbamoyl)-2-thiazol-4-yl-ethylcarbamoyl]-2-(4-ethoxy-phenyl)-ethyl]-amide], the IC50 on Human plasma kallikrein is 16 nM; against Human KLK1 it was more than 10000 nM; against Factor XIIa it was more than 10000 nM.
Turning to `CCOc1ccc(C[C@@H](NC(=O)c2sccc2N)C(=O)N[C@@H](Cc2cscn2)C(=O)NCc2ccc(CN)cc2)cc1` [Example 187, 3-Amino-thiophene-2-carboxylic acid [(R)-1-[(S)-1-(4-aminomethyl-benzylcarbamoyl)-2-thiazol-4-yl-ethylcarbamoyl]-2-(4-ethoxy-phenyl)-ethyl]-amide], the IC50 on Human plasma kallikrein was 7 nM; at Human KLK1 it was more than 10000 nM; against Factor XIIa, more than 10000 nM.
For `CCOc1ccc(C[C@@H](NC(=O)c2ccccc2C)C(=O)N[C@@H](Cc2cccnc2)C(=O)NCc2ccc(CN)cc2)cc1` [Example 190, N-[(R)-1-[(S)-1-(4-Aminomethyl-benzylcarbamoyl)-2-pyridin-3-yl-ethylcarbamoyl]-2-(4-ethoxy-phenyl)-ethyl]-2-methyl-benzamide], the concentration for half-maximal inhibition (IC50) on Human plasma kallikrein is 28 nM; against Human KLK1, more than 10000 nM; on Factor XIIa, more than 10000 nM.
On to `CCOc1ccc(C[C@@H](NC(=O)c2ccccc2)C(=O)N[C@@H](Cc2cccnc2)C(=O)NCc2ccc(CN)c(C)c2)cc1` [Example 192, N-[(R)-1-[(S)-1-(4-Aminomethyl-3-methyl-benzylcarbamoyl)-2-pyridin-3-yl-ethylcarbamoyl]-2-(4-ethoxy-phenyl)-ethyl]-benzamide], for which the values for the IC50 on Human plasma kallikrein, against Human KLK1 and at Factor XIIa were 12 nM, more than 10000 nM and more than 10000 nM, respectively.
Take `CCOc1ccc(C[C@@H](NC(=O)Cc2ccccc2)C(=O)N[C@@H](Cc2ccccc2)C(=O)NCc2ccc(CN)cc2)cc1` [Example 85, (S)-N-(4-Aminomethyl-benzyl)-2-[(R)-3-(4-ethoxy-phenyl)-2-phenylacetylamino-propionylamino]-3-phenyl-propionamide]: the results for the IC50 on Human plasma kallikrein, at Human KLK1 and at Factor XIIa were 485 nM, 2900 nM and more than 10000 nM, respectively.
On to `CCOc1ccc(C[C@@H](NC(=O)c2ccccn2)C(=O)N[C@@H](Cc2cccs2)C(=O)NCc2ccc(CN)cc2)cc1` [Example 157, Pyridine-2-carboxylic acid [(R)-1-[(S)-1-(4-aminomethyl-benzylcarbamoyl)-2-thiophen-2-yl-ethylcarbamoyl]-2-(4-ethoxy-phenyl)-ethyl]-amide], for which the solubility at 1 h in data set [1] is 4.77 µg/mL (≈ 8.14 µM). For the same compound, the values for the IC50 on Human plasma kallikrein, on Human KLK1 and on Factor XIIa were 36 nM, more than 10000 nM and more than 10000 nM, respectively.
`CCOc1ccc(C[C@@H](NC(=O)C23CC4CC(CC(C4)C2)C3)C(=O)N[C@@H](Cc2ccccc2)C(=O)NCc2ccc(CN)cc2)cc1` [Example 91, Adamantane-1-carboxylic acid [(R)-1-[(S)-1-(4-aminomethyl-benzylcarbamoyl)-2-phenyl-ethylcarbamoyl]-2-(4-ethoxy-phenyl)-ethyl]-amide]: the results for the IC50 at Human plasma kallikrein, against Human KLK1 and at Factor XIIa were 2080 nM, more than 10000 nM and more than 10000 nM, respectively.
For the compound `CCOc1ccc(C[C@@H](NC(=O)c2sccc2N)C(=O)N[C@@H](Cc2csc3ccccc23)C(=O)NCc2ccc(CN)cc2)cc1` [Example 194, 3-Amino-thiophene-2-carboxylic acid [(R)-1-[(S)-1-(4-aminomethyl-benzylcarbamoyl)-2-benzo[b]thiophen-3-yl-ethylcarbamoyl]-2-(4-ethoxy-phenyl)-ethyl]-amide], the IC50 on Human plasma kallikrein was 13 nM; against Human KLK1, 7100 nM; against Factor XIIa, more than 10000 nM.
For the compound `CCOc1ccc(C[C@@H](NC(=O)c2ccc(Cl)c(Cl)c2)C(=O)N[C@@H](Cc2ccccc2)C(=O)NCc2ccc(CN)cc2)cc1` [Example 93, N-[(R)-1-[(S)-1-(4-Aminomethyl-benzylcarbamoyl)-2-phenyl-ethylcarbamoyl]-2-(4-ethoxy-phenyl)-ethyl]-3,4-dichloro-benzamide], in data set [1], the solubility at 1 h came to 0.01 µg/mL (≈ 0.0154 µM). Further, the IC50 was 175 nM on Human plasma kallikrein, more than 10000 nM against Human KLK1 and more than 10000 nM at Factor XIIa.

(Values after patent US9234000B2, “Benzylamine derivatives as inhibitors of plasma kallikrein” (KalVista Pharmaceuticals Limited, priority 2011, dated 2016).)
